Each structure is given as a SMILES string. Entries after “also recorded” stand apart in the source; their conditions may differ.

Series [1] in a line: Reactivity with singlet oxygen (EP-1 naphthalene endoperoxide system), fluorescence intensity. The following applies: for changes in fluorescence intensity between before and after treatment, Singlet oxygen: 10 μM probe, 100 mM sodium phosphate buffer pH 7.4, EP-1 (100 μM), 30 minutes. As for the experimental part:
(§1) The excitation spectrum and the fluorescence spectrum of the 10 μM ss-3F solution were measured using a fluorophotometer F4500 (manufactured by Hitachi, Ltd.). Slit width was 2.5 nm for both the excitation spectrum and the fluorescence spectrum, and the photomultiplier voltage was 950 V. Measurement was carried out at the excitation wavelength of 490 nm and the fluorescence wavelength of 510 nm unless otherwise specified.
Subsequently, in order to investigate the reaction between ss-3F and singlet oxygen, a solution of EP-1 (a singlet oxygen generation system, i.e., the naphthalene endoperoxide compound; Saito, I, .et al., J. Am. Chem. Soc., 107, pp. 6329–6334, 1985) in dimethylformamide (DMF) was added to the 10 μM ss-3F solution to final concentrations of 1 mM, 2 mM, and 5 mM, and changes in fluorescence intensity with time was measured (EP-1 system). The temperature of the solution at this time was at 37° C. The excitation spectrum and the fluorescence spectrum of the solution after the completion of the reaction were measured under the same conditions as described above. […] Also in FIG. 3, generation of fluorescence was observed, and it was verified that ss-3F generated fluorescence upon reaction with singlet oxygen.
(§2) The solutions described below were analyzed by HPLC. The absorbance at 460 nm was measured using XTerra™RP18 5 μm (4.6×250 mm) as a column and an aqueous solution of acetonitrile/0.1M NaHCO3=1/1 as an eluate with an elution rate of 1 ml/min. • (A) the 10 μM ss-3F solution • (B) a reaction solution prepared by adding EP-1 to the 10 μM ss-3F solution so as to give a final concentration of 5 mM and reacting at 37° C. for 8 hours • (C) a solution prepared by adding hydrogen peroxide to the 10 μM ss-3F solution so as to give a final concentration of 1 mM, and further adding ferrous perchlorate so as to give a final concentration of 500 μM, and then allowing to stand at room temperature for about 3 hours • (D) a 1 μM fluorescein solution
(§3) A fluorescence spectrum of ss-3 obtained in Example 1 was measured under the same conditions as those in 1) of Example 4, except that the excitation wavelength was at 370 nm and the fluorescence wavelength was at 450 nm. The result obtained in the absence of EP-1 was shown in FIG. 7, and the result of fluorescence spectrum of the solution after the completion of the reaction with EP-1 was shown in FIG. 8.
(§4) The compounds of the present invention, ss-1F, and ss-3F were tested. DCFH (2′,7′-dichlorodihydrofluorescein) was used as a control which was produced by hydrolyzing DCFH-DA (2′,7′-dichlorodihydrofluorescein diacetate; Molecular Probes, D-399) as a commercially available agent for detecting reactive oxygen species. DCFH-DA was hydrolyzed in accordance with the method by Hempel et al. (Stephen L. Hempel et al., Free Radical Biology & Medicine, 27, 146–159, 1999) under an alkali condition to obtain DCFH. […] The 10 μM DCFH solution was used for the test immediately after the preparation. […] Each of ss-1F, ss-3F, and DCFH was treated under conditions “a” to “f” for 30 minutes (2 hours and 30 minutes only for “f”) and changes in fluorescence intensity between before and after treatment were measured. The fluorescence intensity was measured under the same conditions as those in Example 4.

The nature of series [2]: Excitation and fluorescence spectrum of the compound itself. It is filed as physicochemical. How it is done: as §1, §3
Series [3] is described as follows: Reactivity with hydroxyl radical (Fenton system: hydrogen peroxide and ferrous perchlorate), fluorescence intensity. As to conditions: for changes in fluorescence intensity between before and after treatment, Hydroxyl radical: 10 μM probe, 100 mM sodium phosphate buffer pH 7.4, Iron(II) perchlorate (100 μM) and hydrogen peroxide (1 mM), 30 minutes, ex 490 nm/em 510 nm; for reactivity to hydroxyl radical (in words): condition a of Table 1. As for the experimental part:
as §1
Further, to investigate the reaction between ss-3F and hydroxyl radical, hydrogen peroxide was added to the 10 μM ss-3F solution to a final concentration of 1 mM, and then the mixture was added with ferrous perchlorate to a final concentration of 100 μM for each addition (5 times in total) to measure changes in fluorescence intensity with time (Fenton system).
as §2, §4

Series [4] is described as follows: Reactivity with superoxide (KO2), fluorescence intensity. As to conditions: 10 μM probe, 100 mM sodium phosphate buffer pH 7.4; KO2 (100 μM); 30 minutes. How it is done:
as §1, §4

Series [5] is described as follows: Reactivity with hydrogen peroxide, fluorescence intensity. As to conditions: for changes in fluorescence intensity between before and after treatment, Hydrogen peroxide: 10 μM probe, 100 mM sodium phosphate buffer pH 7.4, Hydrogen peroxide (1 mM), 30 minutes; for reaction with hydrogen peroxide per se (in words): result of Example 6. How it is done:
as §1, §4

The nature of series [6]: Reactivity with nitrogen monoxide (NOC13), fluorescence intensity. As to conditions: 10 μM probe, 100 mM sodium phosphate buffer pH 7.4; NOC13 (100 μM); 30 minutes. As for the experimental part:
as §1, §4

Series [7] in a line: Autoxidation under a fluorescent lamp, fluorescence intensity. Format: physicochemical. As to conditions: for changes in fluorescence intensity between before and after treatment, Autoxidation: 10 μM probe, 100 mM sodium phosphate buffer pH 7.4, just under a fluorescent lamp for 2 hours and 30 minutes; for autoxidation (in words): condition f of Table 1. As for the experimental part:
as §1, §4

Series [8] concerns horseradish peroxidase. Nature of the series: Specific detection of peroxidase activity (HRP/H2O2), fluorescence spectrum. Format: biochemical. The following applies: 10 μM probe, horseradish peroxidase 0.2 μM, hydrogen peroxide 0 to 5.0 μM, pH 7.4; fluorescence wavelength 515 nm. As for the experimental part: A 100 mM phosphate buffer (pH 7.4) of horseradish peroxidase was added to the resulting solution of ss-1F or ss-3F to a final concentration of 0.2 μM, and then hydrogen peroxide was added to final concentrations of 0, 0.01, 0.05, 0.1, 0.5, 1.0, 2.0, and 5.0 μM, and the fluorescence spectrum was immediately measured. The fluorescence spectrum was measured under the same conditions as those in 1) of Example 4, except that the fluorescence wavelength was at 515 nm.

As to `Nc1ccc(Oc2ccc3ccc(=O)oc3c2)cc1` [ss-3], the “fluorescence after reaction with singlet oxygen” value in series [1] (after completion of the reaction with EP-1, excitation 370 nm, fluorescence 450 nm) is given as “emits fluorescence upon reaction with singlet oxygen”. Further, the “fluorescence of the compound itself” value in series [2] (absence of EP-1, excitation 370 nm, fluorescence 450 nm) is “substantially non-fluorescent”.
Consider `O=C(O)c1ccccc1-c1c2ccc(=O)cc-2oc2cc(Oc3ccc(O)cc3)ccc12` [ss-1F], for which, in series [3], the “changes in fluorescence intensity between before and after treatment, Hydroxyl radical” value (shortened to “changes … after treatment, Hydroxyl radical”) is on record as 3.3 × 10^2; the “reactivity to hydroxyl radical (in words)” value (shortened to “reactivity”) is given as “high reactivity to hydroxyl radical”. Further, the “changes in fluorescence intensity between before and after treatment, Singlet oxygen” value (from here on “changes … after treatment, Singlet oxygen”) in series [1] is 4.8. Besides, the “changes in fluorescence intensity between before and after treatment, Superoxide” value (“changes … Superoxide” below) in series [4] worked out at 8.3. In series [5], the “changes in fluorescence intensity between before and after treatment, Hydrogen peroxide” value (“changes … Hydrogen peroxide” below) was found to be 1.8; the “reaction with hydrogen peroxide per se (in words)” value was “do not react with hydrogen peroxide”. For the same molecule, in series [6], the “changes in fluorescence intensity between before and after treatment, Nitrogen monoxide” value (shortened to “changes … Nitrogen monoxide”) was determined as 6.0. Besides, in series [7], the “changes in fluorescence intensity between before and after treatment, Autoxidation” value (“changes … Autoxidation” for short) is recorded as below 1.0; the “autoxidation (in words)” value was “completely free from autoxidation; also recorded: no autoxidation”. For the same molecule, the “fluorescence intensity with HRP/H2O2” value in series [8] is on record as “increase in fluorescence intensity in a concentration-dependent manner”.
Take `O=C(O)c1ccccc1C1c2cc(Cl)c(O)cc2Oc2cc(O)c(Cl)cc21` [DCFH, 2′,7′-dichlorodihydrofluorescein, reference compound]: in series [3], the “changes … after treatment, Hydroxyl radical” value is recorded as 4.8 × 10^3; the “reactivity” value is listed as “successfully reacted with hydroxyl radical”. Further, the “changes … after treatment, Singlet oxygen” value in series [1] turned out to be 26. In addition, in series [4], the “changes … Superoxide” value was determined as 67. For the same molecule, in series [5], the “changes … Hydrogen peroxide” value is on record as 1.9 × 10^2. Besides, the “changes … Nitrogen monoxide” value in series [6] is 1.5 × 10^2. Further, in series [7], the “changes … Autoxidation” value is 1.6 × 10^3; the “autoxidation (in words)” value was “high”.
In the case of `Nc1ccc(Oc2ccc3c(-c4ccccc4C(=O)O)c4ccc(=O)cc-4oc3c2)cc1` [ss-3F], in series [3], the “changes … after treatment, Hydroxyl radical” value is recorded as 6.0 × 10^2; the “reactivity” value was “high reactivity to hydroxyl radical”. In series [3] (10 μM solution, hydrogen peroxide 1 mM, ferrous perchlorate 100 μM per addition (5 times)), the “changes in fluorescence intensity with time on reaction with hydroxyl radical” value was “increase in fluorescence intensity was observed at each time of the addition of ferrous perchlorate”. Moreover, the “changes … after treatment, Singlet oxygen” value in series [1] was found to be 8.7. Also, in series [1] (10 μM solution, EP-1 1 mM, 2 mM, 5 mM, 37° C., ex 490 nm/em 510 nm), the “changes in fluorescence intensity with time on reaction with singlet oxygen” value was “increase in fluorescence intensity was observed dependently on EP-1 concentrations as well as in time dependent manner”. In series [4], the “changes … Superoxide” value is reported as 5.6. In series [5], the “changes … Hydrogen peroxide” value is recorded as below 1.0; the “reaction with hydrogen peroxide per se (in words)” value is “do not react with hydrogen peroxide”. Besides, the “changes … Nitrogen monoxide” value in series [6] was below 1.0. For the same molecule, in series [7], the “changes … Autoxidation” value is below 1.0; the “autoxidation (in words)” value was “completely free from autoxidation; also recorded: no autoxidation”. The “fluorescence intensity with HRP/H2O2” value in series [8] is listed as “increase in fluorescence intensity in a concentration-dependent manner”. Further, in series [2] (10 μM in 100 mM sodium phosphate buffer pH 7.4, excitation 490 nm, fluorescence 510 nm), the “fluorescence of the compound per se” value is recorded as “emits no fluorescence”.

The record behind these values is patent publication US7087766B2, “Reagents for the quantitation of active oxygen” (Daiichi Pure Chemicals Co., Ltd., priority 2000, dated 2006).
